In brackets after ≈: the same amount, converted by molar mass. Entries after “also recorded” stand apart in the source; their conditions may differ. Like-named read-outs stand apart in the source and are kept apart here.
How the values were obtained:
Proteus Vulgaris HX-19 = assay: MIC; format: cell-based; conditions: gram negative
Protocol: (§1) In accordance with the method as disclosed in Chemotherapy, Vol. 29, pages 76-79 (1981), MIC (μg/ml) of each test compound was measured.

[1] = system: Staphylococcus epidermidis; assay: MIC; format: cell-based; conditions: gram positive
Protocol: as §1

[2] = system: Bacillus subtilis ATCC 6633; assay: MIC; format: cell-based; conditions: ATCC6633, gram positive
Protocol: as §1

[3] = system: Pseudomonas aeruginosa IFO 3445; assay: MIC; format: cell-based
Protocol: as §1

[4] = system: Klebsiella pneumoniae PCI-602; assay: MIC; format: cell-based; conditions: PCI602, gram negative
Protocol: as §1

[5] = system: Staphylococcus aureus FDA 209P JC-1; assay: MIC; format: cell-based; conditions: FDA209P, gram positive
Protocol: as §1

[6] = system: Salmonella paratyphi 1015; assay: MIC; format: cell-based; conditions: Salmonella enterica
Protocol: as §1

[7] = system: Serratia marcescens IAM 1184; assay: MIC; format: cell-based; conditions: IAM1184, gram negative
Protocol: as §1

[8] = system: Escherichia coli NIHJ JC-2; assay: MIC; format: cell-based; conditions: NIHJJC2, gram negative
Protocol: as §1

in vivo [9] = conditions: mouse, in vivo, po
Protocol: (§2) The acute toxicities in oral administration and intravenous injection of the test compounds were tested as follows:
(§3) In oral administration: To ddY-strain male mice (weighing 20-25 g, five per group) was administered orally a suspension of each test compound in a 0.5% sodium carboxymethylcellulose. […] J. Biometric Soc., 8, 249 (1959)].

ddY-strain male mice [10] = assay: in vivo; format: in vivo; conditions: 10080 min
Protocol: as §2
(§4) In intravenous administration: Each of the test compounds was dissolved in 1N aqueous sodium hydroxide solution and thereto was added a phosphoric acid-saline buffer (pH 7.2) to prepare a test solution. The test solution was intravenously injected to ddy-strain male mice (weighing 20-25 g, five per group). One week after the administration of the test solution, the LD50 was determined in accordance with Weil method.

[11] = Bioavailability in oral administration in rats; format: in vivo, Wistar-strain male rats; design: AUC at 4 h: concentration or dose not given beside the values; conditions: rat
Protocol: Each of the test compounds was suspended in a 0.5% sodium carboxymethylcellulose to prepare a suspension having a concentration of 5 mg/ml of the test compound.
Wistar-strain male rats (weighing 160 g ±20 g, three per group) were used. The suspension was orally administered to rats fasted 16 hours. 30, 60, 120, and 240 minutes after the administration of the test compound, blood was taken out from the rats. The blood was centrifuged at 3,000 rpm for 20 minutes to obtain a plasma sample. In the same manner as described in Experiment 2, the concentration (μg/ml) of test compound in plasma and also AUC (μg.hr/ml) were measured.

[12] = Bioavailability in oral administration in mice; format: in vivo, ddY-strain male mice; conditions: for concentration at 0.5 h / concentration at 1 h / concentration at 2 h / concentration at 4 h / AUC at 4 h: mouse
Protocol: Each of the test compounds was suspended in a 0.5% sodium carboxymethylcellulose to prepare a suspension having a concentration of 5 mg/ml of the compound.
ddY-strain male mice (5 week old, weighing 22 to 25 g, three per group) were used. The suspension was orally administered to mice fasted for 16 hours. The dose of the test compound was adjusted to 50 mg/kg of body weight of animal. 30, 60, 120, and 240 minutes after the administration of the test compound, blood was taken out from each mouse, and the blood sample thus obtained was centrifuged at 3,000 rpm for 20 minutes to obtain a serum sample.

ddY-strain male mice [13] = conditions: p.o.; data reported at Nippon Kagakuryohogakkai 28th Meeting (1980, Tokyo); 10080 min; cited from earlier work
ddY-strain male mice [14] = conditions: i.v.; data reported at Nippon Kagakuryohogakkai 28th Meeting (1980, Tokyo); 10080 min; cited from earlier work
in vivo [15] = format: in vivo; conditions: mouse, in vivo, iv
Protocol: as §2, §4

ddY-strain male mice [16] = assay: in vivo; conditions: mice, p.o., one week, Weil method; 10080 min
Protocol: as §2, §3

Microorganisms = assay: In vitro anti-microbial activity (MIC), overall; format: cell-based; conditions: Experiment 1
Protocol: as §1

[17] = IFO3445, gram negative, read-out: MIC
[18] = mice, i.v., one week, Weil method
[19] = plasma, rats, oral, after 30 min., read-out: Concentration in plasma
[20] = plasma, rats, oral, after 60 min., read-out: Concentration in plasma
[21] = plasma, rats, oral, after 120 min., read-out: Concentration in plasma
[22] = plasma, rats, oral, after 240 min., read-out: Concentration in plasma
[23] = rats, oral, plasma, 1-4 hrs., read-out: AUC
[24] = serum, mice, oral 50 mg/kg, after 30 min., read-out: Concentration in serum
[25] = serum, mice, oral 50 mg/kg, after 60 min., read-out: Concentration in serum
[26] = serum, mice, oral 50 mg/kg, after 120 min., read-out: Concentration in serum
[27] = serum, mice, oral 50 mg/kg, after 240 min., read-out: Concentration in serum
[28] = mice, oral 50 mg/kg, serum, 1-4 hrs., read-out: AUC

SMILES	MIC (Proteus Vulgaris HX-19)	MIC [1]	MIC [2]	MIC [3, 17]	MIC [4]	MIC [5]	MIC [6]	MIC [7]	MIC [8]	concentration at 0.5 h [11, 19]	concentration at 1 h [11, 20]	concentration at 2 h [11, 21]	concentration at 4 h [11, 22]	AUC at 4 h [11, 23]	concentration at 0.5 h [12, 24]	concentration at 1 h [12, 25]	concentration at 2 h [12, 26]	concentration at 4 h [12, 27]	AUC at 4 h [12, 28]	also measured
CCn1cc(C(=O)O)c(=O)c2cc(F)c(-n3ccnc3)c(F)c21 [I-a, 1-Ethyl-6,8-difluoro-1,4-dihydro-7-(1-imidazolyl)-4-oxoquinoline-3-carboxylic acid]	0.025 µg/mL (≈ 0.0783 µM)	3.13 µg/mL (≈ 9.8 µM)	0.1 µg/mL (≈ 0.313 µM)	6.25 µg/mL (≈ 19.6 µM)	0.05 µg/mL (≈ 0.157 µM)	0.39 µg/mL (≈ 1.22 µM)	0.05 µg/mL (≈ 0.157 µM)	1.56 µg/mL (≈ 4.89 µM)	0.2 µg/mL (≈ 0.626 µM)	54900 ± 3900 ng/mL	70800 ± 3100 ng/mL	48000 ± 4300 ng/mL	31300 ± 3600 ng/mL	184000 ng·h/mL	44800 ± 8900 ng/mL	39300 ± 5200 ng/mL	7600 ± 1700 ng/mL	1700 ± 500 ng/mL	64900 ng·h/mL	LD50 at 168 h (in vivo [9]; mice, one week, Weil method): > 4000 mg/kg; LD50 (ddY-strain male mice [10]; [18]): 773 mg/kg
CCn1cc(C(=O)O)c(=O)c2cc(F)c(N3CCNCC3)cc21 [Compound A, 1-ethyl-1,4-dihydro-6-fluoro-4-oxo-7-(1-piperazinyl)quinoline-3-carboxylicacid]	0.1 µg/mL (≈ 0.313 µM)	3.13 µg/mL (≈ 9.8 µM)	0.39 µg/mL (≈ 1.22 µM)	–	0.1 µg/mL (≈ 0.313 µM)	0.39 µg/mL (≈ 1.22 µM)	0.1 µg/mL (≈ 0.313 µM)	0.39 µg/mL (≈ 1.22 µM)	0.39 µg/mL (≈ 1.22 µM)	1810 ± 140 ng/mL	1190 ± 20 ng/mL	630 ± 110 ng/mL	250 ± 10 ng/mL	2990 ng·h/mL	1050 ± 240 ng/mL	690 ± 70 ng/mL	400 ± 50 ng/mL	360 ± 30 ng/mL	2000 ng·h/mL	MIC ([3]; IFO3445): 1.56 µg/mL (≈ 4.89 µM); LD50 (ddY-strain male mice [13]): > 4,000 mg/kg; LD50 (ddY-strain male mice [14]): 220 mg/kg
CCn1cc(C(=O)O)c(=O)c2cc(F)c(N3CCN(C)CC3)c(F)c21 [D, 1-ethyl-6,8-difluoro-1,4-dihydro-7-[1-(4-methylpiperazinyl)]-4-oxoquinoline-3-carboxylic acid]	0.05 µg/mL (≈ 0.142 µM)	1.56 µg/mL (≈ 4.44 µM)	0.2 µg/mL (≈ 0.569 µM)	1.56 µg/mL (≈ 4.44 µM)	0.1 µg/mL (≈ 0.285 µM)	0.78 µg/mL (≈ 2.22 µM)	0.1 µg/mL (≈ 0.285 µM)	0.78 µg/mL (≈ 2.22 µM)	0.2 µg/mL (≈ 0.569 µM)	22600 ± 4500 ng/mL	24000 ± 2300 ng/mL	14600 ± 1100 ng/mL	9300 ± 100 ng/mL	60400 ng·h/mL	14400 ± 800 ng/mL	11500 ± 900 ng/mL	6700 ± 600 ng/mL	3400 ± 400 ng/mL	29300 ng·h/mL	LD50 at 168 h (in vivo [9]): 536 mg/kg; LD50 at 168 h (in vivo [15]): 196 mg/kg
CCn1cc(C(=O)O)c(=O)c2cc(F)c(N3CCNCC3)c(F)c21 [C, 1-ethyl-6,8-difluoro-1,4-dihydro-4-oxo-7-(1-piperazinyl)quinoline-3-carboxylic acid]	0.1 µg/mL (≈ 0.296 µM)	3.13 µg/mL (≈ 9.28 µM)	0.39 µg/mL (≈ 1.16 µM)	0.78 µg/mL (≈ 2.31 µM)	0.1 µg/mL (≈ 0.296 µM)	0.39 µg/mL (≈ 1.16 µM)	0.1 µg/mL (≈ 0.296 µM)	0.78 µg/mL (≈ 2.31 µM)	0.2 µg/mL (≈ 0.593 µM)	–	–	–	–	–	–	–	–	–	–	LD50 (ddY-strain male mice [16]): 1,072 mg/kg; LD50 (ddY-strain male mice [10]; [18]): 193 mg/kg; AUC at 4 h ([11]; in vivo, po): 26000 ng·h/mL; concentration at 0.5 h ([11]; in vivo, po): 11700 ± 1100 ng/mL; concentration at 1 h ([11]; in vivo, po): 12300 ± 800 ng/mL; concentration at 2 h ([11]; in vivo, po): 6400 ± 300 ng/mL; concentration at 4 h ([11]; in vivo, po): 2000 ± 1800 ng/mL; AUC at 4 h ([12]; in vivo, po, 50 mg/kg): 12400 ng·h/mL; concentration at 0.5 h ([12]; in vivo, po, 50 mg/kg): 6260 ± 1570 ng/mL; concentration at 1 h ([12]; in vivo, po, 50 mg/kg): 3510 ± 1290 ng/mL; concentration at 2 h ([12]; in vivo, po, 50 mg/kg): 3410 ± 670 ng/mL; concentration at 4 h ([12]; in vivo, po, 50 mg/kg): 1530 ± 270 ng/mL
CCn1cc(C(=O)O)c(=O)c2cnc(-n3ccnc3)cc21 [E, 1-ethyl-1,4-dihydro-7-(1-imidazolyl)-4-oxo-1,6-naphthylidine-3-carboxylic acid]	3.12 µg/mL (≈ 11 µM)	> 100 µg/mL	100 µg/mL (≈ 352 µM)	> 100 µg/mL	25 µg/mL (≈ 87.9 µM)	> 100 µg/mL	12.5 µg/mL (≈ 44 µM)	100 µg/mL (≈ 352 µM)	> 100 µg/mL	–	–	–	–	–	–	–	–	–	–	anti-microbial activities in vitro (MIC), in words (Microorganisms): less antimicrobial activities; also recorded: far less activities
CCn1cc(C(=O)O)c(=O)c2cc(F)c(N3CCN(C)CC3)cc21 [B, 1-ethyl-1,4-dihydro-6-fluoro-7-[1-(4-methylpiperazinyl)]-4-oxoquinoline-3carboxylic acid]	0.1 µg/mL (≈ 0.3 µM)	0.78 µg/mL (≈ 2.34 µM)	0.2 µg/mL (≈ 0.6 µM)	1.56 µg/mL (≈ 4.68 µM)	0.1 µg/mL (≈ 0.3 µM)	0.39 µg/mL (≈ 1.17 µM)	0.1 µg/mL (≈ 0.3 µM)	–	0.39 µg/mL (≈ 1.17 µM)	–	–	–	–	–	–	–	–	–	–	–
CC1COc2c(-n3ccnc3)c(F)cc3c(=O)c(C(=O)O)cn1c23 (stereo not drawn) [F, 2,3-dihydro-9-fluoro-10-(1-imidazolyl)-3-methyl-7-oxo-7H-pyrido[1,2,3-de][1,4]benzoxazine-6-carboxylic acid]	0.025 µg/mL (≈ 0.0759 µM)	1.56 µg/mL (≈ 4.74 µM)	0.1 µg/mL (≈ 0.304 µM)	3.12 µg/mL (≈ 9.48 µM)	0.05 µg/mL (≈ 0.152 µM)	0.19 µg/mL (≈ 0.577 µM)	0.05 µg/mL (≈ 0.152 µM)	3.12 µg/mL (≈ 9.48 µM)	0.39 µg/mL (≈ 1.18 µM)	–	–	–	–	–	6400 ± 1800 ng/mL	2600 ± 1000 ng/mL	1200 ± 300 ng/mL	600 ± 200 ng/mL	7500 ng·h/mL	bioavailability when administered orally, in words ([12]; mice, oral, Experiment 2): inferior to the compounds of the present invention in the bioavailability
CCn1cc(C(=O)O)c(=O)c2cc(F)c(-n3cnc(C)c3)c(F)c21 [I-b, 1-Ethyl-6,8-difluoro-1,4-dihydro-7-[1-(4-methylimidazolyl)]-4-oxoquinoline-3-carboxylic acid]	0.025 µg/mL (≈ 0.075 µM)	3.13 µg/mL (≈ 9.39 µM)	0.05 µg/mL (≈ 0.15 µM)	6.25 µg/mL (≈ 18.8 µM)	0.1 µg/mL (≈ 0.3 µM)	0.78 µg/mL (≈ 2.34 µM)	0.1 µg/mL (≈ 0.3 µM)	3.13 µg/mL (≈ 9.39 µM)	0.39 µg/mL (≈ 1.17 µM)	58700 ± 5300 ng/mL	62900 ± 6000 ng/mL	52000 ± 4000 ng/mL	33500 ± 4900 ng/mL	188000 ng·h/mL	49200 ± 2500 ng/mL	29400 ± 2500 ng/mL	10000 ± 800 ng/mL	6300 ± 1100 ng/mL	67900 ng·h/mL	LD50 at 168 h (in vivo [9]): > 4000 mg/kg; LD50 (ddY-strain male mice [10]; mouse, in vivo, iv): 593 mg/kg

Source: US4530930A, “Antimicrobial 1-ethyl-6,8-difluoro-1,4-dihydro-7-(1-imidazolyl)-4-oxoquinoline-3-carbo xylic acid derivatives” (Kanebo, Ltd., priority 1982, dated 1985)
